From PubChem BioAssay AID1918943 (Molecular Pharmacology Branch, DTP, NCI, 2023)
Several values for one entry are separate records, joined by “and”; a condition that tells them apart may be missing. Equal entries are not always repeated.

System: 855422-203-R-J1-PDC complex spheroid viability
Experiment: Anticancer human tumor 855422-203-R-J1-PDC patient-derived bladder carcinoma cell line growth inhibition
Conditions: for viability, T/C: stronger effect = lower value
Outline: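 Multicellular complex spheroids of tumor cells with human endothelial cells (HUVEC) and mesenchymal stem cells; the LSD1 inhibitor iadademstat was combined with standard-of-care or investigational agents. Top concentration at or near clinical Cmax, half-log dilutions; final DMSO ≤0.25%.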

[1] = curve of first compound, second compound 0.1 µM
[2] = curve of first compound, second compound 0.316 µM
[3] = curve of first compound, second compound 1 µM
[4] = curve of first compound, second compound 3.16 µM
[5] = curve of first compound, second compound 10 µM
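Also: drug exposure lasted 7 days starting on day 3 after seeding.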
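For viability, T/C in this document: luminescence viability as percent of DMSO vehicle wells = 100%.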

`COc1ccc([C@@H](O)c2cc(-c3ncnc4cc(N5CCOCC5)ccc34)c(F)cc2Cl)nn1` + NC1CCC(NC2CC2c2ccccc2)CC1 gave an IC50 [1] of 3980 nM, an IC50 [2] of 3750 nM and an IC50 [3] of 3580 nM. For the same compound, the IC50 [4] was 3120 nM, the IC50 [5] was 3230 nM and the viability, T/C (second compound 0.1 µM, first compound 0.0316 µM) was 83.7%. For the same compound, the viability, T/C (second compound 0.1 µM, first compound 0.1 µM) was 88.8%, the viability, T/C (second compound 0.1 µM, first compound 0.316 µM) was 76.3% and the viability, T/C (second compound 0.1 µM, first compound 1 µM) was 73.8%. The viability, T/C (second compound 0.1 µM, first compound 3.16 µM) was 53.1%, the viability, T/C (second compound 0.1 µM, first compound 10 µM) was 34.5% and the viability, T/C (second compound 0.316 µM, first compound 0.0316 µM) was 88.5%. For the same compound, the viability, T/C (second compound 0.316 µM, first compound 0.1 µM) was 89.4%, the viability, T/C (second compound 0.316 µM, first compound 0.316 µM) was 73.4% and the viability, T/C (second compound 0.316 µM, first compound 1 µM) was 69.3%. It also gave a viability, T/C (second compound 0.316 µM, first compound 3.16 µM) of 53%, a viability, T/C (second compound 0.316 µM, first compound 10 µM) of 33.5% and a viability, T/C (second compound 1 µM, first compound 0.0316 µM) of 87.1%. The viability, T/C (second compound 1 µM, first compound 0.1 µM) was 84.7%, the viability, T/C (second compound 1 µM, first compound 0.316 µM) was 73.3% and the viability, T/C (second compound 1 µM, first compound 1 µM) was 68%. The viability, T/C (second compound 1 µM, first compound 3.16 µM) was 53%, the viability, T/C (second compound 1 µM, first compound 10 µM) was 30.8% and the viability, T/C (second compound 3.16 µM, first compound 0.0316 µM) was 85.2%. It also gave a viability, T/C (second compound 3.16 µM, first compound 0.1 µM) of 78.2%, a viability, T/C (second compound 3.16 µM, first compound 0.316 µM) of 75.1% and a viability, T/C (second compound 3.16 µM, first compound 1 µM) of 68.2%. The viability, T/C (second compound 3.16 µM, first compound 3.16 µM) was 48.4%, the viability, T/C (second compound 3.16 µM, first compound 10 µM) was 31.3% and the viability, T/C (second compound 10 µM, first compound 0.0316 µM) was 76.9%. The viability, T/C (second compound 10 µM, first compound 0.1 µM) was 80%, the viability, T/C (second compound 10 µM, first compound 0.316 µM) was 71.7% and the viability, T/C (second compound 10 µM, first compound 1 µM) was 64.7%. The viability, T/C (second compound 10 µM, first compound 3.16 µM) was 50.6% and the viability, T/C (second compound 10 µM, first compound 10 µM) was 32.8%.
With `COc1ccc([C@@H](O)c2cc(-c3ncnc4cc(N5CCOCC5)ccc34)c(F)cc2Cl)nn1` the viability, T/C (compound 0.0316 µM) was 95% and 94.1%, the viability, T/C (compound 0.1 µM) was 94.7% and 94.4% and the viability, T/C (compound 0.316 µM) was 79.5% and 92.2%. For the same compound, the viability, T/C (compound 1 µM) was 74.3% and 85.5%, the viability, T/C (compound 3.16 µM) was 53.7% and 69.3% and the viability, T/C (compound 10 µM) was 38.6% and 39.6%. For the same compound, the IC50 (curve of compound) was 4480 nM and 6680 nM.
`CCN(c1cc(-c2ccc(CN3CCOCC3)cc2)cc(C(=O)NCc2c(C)cc(C)[nH]c2=O)c1C)C1CCOCC1` was tested, and the viability, T/C (compound 0.00949 µM) was 105% and 109%, the viability, T/C (compound 0.03 µM) was 95.1% and 101% and the viability, T/C (compound 0.0949 µM) was 94.6% and 97.5%. For the same compound, the viability, T/C (compound 0.3 µM) was 86.5% and 91.6%, the viability, T/C (compound 0.949 µM) was 88% and 88.5% and the viability, T/C (compound 3 µM) was 84.7% and 89%. For the same compound, the IC50 (curve of compound) was over 3000 nM.
With `O=C(c1cc(Cc2n[nH]c(=O)c3ccccc23)ccc1F)N1CCN(C(=O)C2CC2)CC1` the viability, T/C (compound 0.0316 µM) was 88.5% and 98.6%, the viability, T/C (compound 0.1 µM) was 94.1% and 111% and the viability, T/C (compound 0.316 µM) was 96% and 110%. For the same compound, the viability, T/C (compound 1 µM) was 88.8% and 98.8%, the viability, T/C (compound 3.16 µM) was 86.5% and 91.7% and the viability, T/C (compound 10 µM) was 63.3% and 76.1%. It also gave an IC50 (curve of compound) of over 10000 nM.
Compound `COc1cc(C2c3cc4c(cc3C(OC3OC5COC(C)OC5C(O)C3O)C3COC(=O)C23)OCO4)cc(OC)c1O` (stereo not given) + NC1CCC(NC2CC2c2ccccc2)CC1 has an IC50 [1] of 153 nM, an IC50 [2] of 142 nM and an IC50 [3] of 137 nM. For the same compound, the IC50 [4] was 128 nM, the IC50 [5] was 130 nM and the viability, T/C (second compound 0.1 µM, first compound 0.00949 µM) was 89.8%. The viability, T/C (second compound 0.1 µM, first compound 0.03 µM) was 87.1%, the viability, T/C (second compound 0.1 µM, first compound 0.0949 µM) was 57.6% and the viability, T/C (second compound 0.1 µM, first compound 0.3 µM) was 35.6%. It also gave a viability, T/C (second compound 0.1 µM, first compound 0.949 µM) of 18.5%, a viability, T/C (second compound 0.1 µM, first compound 3 µM) of 9.63% and a viability, T/C (second compound 0.316 µM, first compound 0.00949 µM) of 92%. For the same compound, the viability, T/C (second compound 0.316 µM, first compound 0.03 µM) was 86.4%, the viability, T/C (second compound 0.316 µM, first compound 0.0949 µM) was 55.4% and the viability, T/C (second compound 0.316 µM, first compound 0.3 µM) was 34.6%. It also gave a viability, T/C (second compound 0.316 µM, first compound 0.949 µM) of 19.5%, a viability, T/C (second compound 0.316 µM, first compound 3 µM) of 10.1% and a viability, T/C (second compound 1 µM, first compound 0.00949 µM) of 85.2%. The viability, T/C (second compound 1 µM, first compound 0.03 µM) was 81.9%, the viability, T/C (second compound 1 µM, first compound 0.0949 µM) was 56.9% and the viability, T/C (second compound 1 µM, first compound 0.3 µM) was 31.7%. The viability, T/C (second compound 1 µM, first compound 0.949 µM) was 16.4%, the viability, T/C (second compound 1 µM, first compound 3 µM) was 8.66% and the viability, T/C (second compound 3.16 µM, first compound 0.00949 µM) was 85%. The viability, T/C (second compound 3.16 µM, first compound 0.03 µM) was 84.9%, the viability, T/C (second compound 3.16 µM, first compound 0.0949 µM) was 53.6% and the viability, T/C (second compound 3.16 µM, first compound 0.3 µM) was 30.5%. It also gave a viability, T/C (second compound 3.16 µM, first compound 0.949 µM) of 17%, a viability, T/C (second compound 3.16 µM, first compound 3 µM) of 8.59% and a viability, T/C (second compound 10 µM, first compound 0.00949 µM) of 78.4%. It also gave a viability, T/C (second compound 10 µM, first compound 0.03 µM) of 79.7%, a viability, T/C (second compound 10 µM, first compound 0.0949 µM) of 57.7% and a viability, T/C (second compound 10 µM, first compound 0.3 µM) of 26.8%. It also gave a viability, T/C (second compound 10 µM, first compound 0.949 µM) of 15.8% and a viability, T/C (second compound 10 µM, first compound 3 µM) of 8.09%.
`O=C(C=Cc1cccc(S(=O)(=O)Nc2ccccc2)c1)NO` was tested, and the viability, T/C (compound 0.00949 µM) was 90.4% and 96.6%, the viability, T/C (compound 0.03 µM) was 104% and 108% and the viability, T/C (compound 0.0949 µM) was 82% and 112%. The viability, T/C (compound 0.3 µM) was 64.3% and 65.9%, the viability, T/C (compound 0.949 µM) was 12.3% and 17.6% and the viability, T/C (compound 3 µM) was 0.4% and 0.43%. The IC50 (curve of compound) was 399 nM and 444 nM.
`Nc1ccccc1NC(=O)c1ccc(CNC(=O)OCc2cccnc2)cc1` was tested, and the viability, T/C (compound 0.00949 µM) was 92.6% and 94.4%, the viability, T/C (compound 0.03 µM) was 100% and 97% and the viability, T/C (compound 0.0949 µM) was 106% and 105%. The viability, T/C (compound 0.3 µM) was 90.8% and 101%, the viability, T/C (compound 0.949 µM) was 75.4% and 64% and the viability, T/C (compound 3 µM) was 13.4% and 13.2%. For the same compound, the IC50 (curve of compound) was 1510 nM and 1300 nM.
